Test results: patent US9260395B2, “Inhibitors of viral replication, their process of preparation and their therapeutical uses” (priority 2012, dated 2016)

These molecules were tested on NL4-3 strain of HIV-1 (assay: Cyto-protection (CellTiter-Glo viability) assay of MT4 cells infected with NL4-3 virus; inhibition of HIV replication). Conditions: Human immunodeficiency virus 1, NL43, 120 h; concentration leading to 50% of cyto-protection; MT4 cells infected with NL4-3 virus; 5 days incubation; CellTiter-Glo; read-out: EC50.
Format: cell-based
Experimental: Preparation of Virus stock of the NL4-3 strain of HIV-1 (Adachi et al, J Virol, 1986, 59(2):284-91).
The virus was prepared as described in Lopez et al (Lopez et al, Proc Natl Acad Sci USA., 2006, 103(40):14947-52, by transfecting 2×10^6 293 T cells (CRL-1573, ATCC) with following modifications: 6 μg of NL4-3 proviral DNA molecular clone were mixed with Fugene 6 transfection reagent from Roche, and used according to manufacturer's instructions. Forty eight hours later, transfected cell supernatants were harvested, filtered through 0.45-μm-pore-size filters, quantified for HIV-1 p24 antigen by using a Innotest HIV antigen mAb assay (Ingen) according to manufacturer's instructions, and used in infection experiments.
Serial dilutions of compounds to be tested were prepared in complete RPMI medium from 10 mM DMSO stock solutions, and I in 96 well Falcon 353072 Microtest[…]distributed in a volume of 20™ tissue culture plate, in order to get 0.5% DMSO final concentration in each well, after the addition of infected cells. Control wells contained also 0.5% DMSO final concentration but no compound.
MT4 cells (from the NIH AIDS Research and Reference Reagent Program) in RPMI complete medium were counted (10×10^6 cells per well in Falcon 353047 Multiwell™ 24 well) and infected for 2 hours at 37°, at a multiplicity of infection (moi) of 0.0001-0.00001. Cells were then centrifuged 3 min at 3000 rpm, and washed two times in 1 ml PBS to remove viruses that have not entered in cells. Infected cells were resuspended in complete RPMI at 1.25×10^6 cells/ml and 80 μl of infected cells were distributed in each well containing compound to be tested or control wells. The plates were then incubated at 37° for 5 days.
Assay used to measure the inhibition of HIV replication by the compounds (according to Gregg S. Jones et al., Antimicrobial Agents and Chemotherapy, 2009, 53 (3): 1194-1203).
After 5 days of incubation, microplates were equilibrated to room temperature for 30 mn and then 50 μl of CellTiter-Glo reagent (Promega Biosciences, Inc., Madison Wis., USA) were added to each well. Cell lysis was carried out at room temperature during 10 min, 150μl of lysates were transferred in Packard Optiplate 96 well, and luminescence was read on a Fluoroskan (Thermo Scientific).
The EC50, or effective concentration 50, is the concentration of compound leading to 50% of cyto-protection in a Cell-Titer-Glo® viability assay based on MT4 cells infected with NL4-3 virus (table 1).

| SMILES | EC50 [µM] |
| --- | --- |
| Cn1nc(-c2ccc(Cl)s2)c(-c2ccc3c(c2)CCCO3)c1C(OC(C)(C)C)C(=O)O (centres unmarked) [Example 36, 2-(tert-butoxy)-2-[3-(5-chlorothiophen-2-yl)-4-(3,4-dihydro-2H-1-benzopyran-6-yl)-1-methyl-1H-pyrazol-5-yl]acetic acid] | 2.7 |
| CC1CC=C(c2nn(C)c(C(OC(C)(C)C)C(=O)O)c2-c2ccc3c(c2)CCCO3)CC1 (centres unmarked) [Example 31, 2-(tert-butoxy)-2-[4-(3,4-dihydro-2H-1-benzopyran-6-yl)-1-methyl-3-(4-methylcyclohex-1-en-1-yl)-1H-pyrazol-5-yl]acetic acid] | 3.8 |
| CC(C)(C)OC(C(=O)O)c1c(-c2ccc3c(c2)CCCO3)c(-c2cccs2)nn1CC(F)(F)F (centres unmarked) [Example 34, 2-(tert-butoxy)-2-[4-(3,4-dihydro-2H-1-benzopyran-6-yl)-3-(thiophen-2-yl)-1-(2,2,2-trifluoroethyl)-1H-pyrazol-5-yl]acetic acid] | 3.5 |
| CCCc1cc(-c2nn(C)c(C(OC(C)(C)C)C(=O)O)c2-c2ccc3c(c2)CCCO3)cs1 (centres unmarked) [Example 11, 2-(tert-butoxy)-2-[4-(3,4-dihydro-2H-1-benzopyran-6-yl)-1-methyl-3-(5-propylthiophen-3-yl)-1H-pyrazol-5-yl]acetic acid] | 0.83 |
| C=C(c1nn(C)c(C(OC(C)(C)C)C(=O)O)c1-c1ccc2c(c1)CCCO2)C1CCCC1 (centres unmarked) [Example 23, 2-(tert-butoxy)-2-[3-(1-cyclopentylethenyl)-4-(3,4-dihydro-2H-1-benzopyran-6-yl)-1-methyl-1H-pyrazol-5-yl]acetic acid] | 2 |
| Cn1nc(-c2csc3ccccc23)c(-c2ccc3c(c2)CCCO3)c1C(OC(C)(C)C)C(=O)O (centres unmarked) [Example 38, 2-[3-benzo[b]thiophen-3-yl-4-(3,4-dihydro-2H-1-benzopyran-6-yl)-1-methyl-1H-pyrazol-5-yl]-2-(tert-butoxy)acetic acid] | 2.2 |
| Cn1nc(-c2ccccn2)c(-c2ccc3c(c2)CCCO3)c1C(OC(C)(C)C)C(=O)O (centres unmarked) [Example 9, 2-(tert-butoxy)-2-[4-(3,4-dihydro-2H-1-benzopyran-6-yl)-1-methyl-3-(pyridin-2-yl)-1H-pyrazol-5-yl]acetic acid] | 3.7 |
| Cn1nc(C2=CCCC2)c(-c2ccc3c(c2)CCCO3)c1C(OC(C)(C)C)C(=O)O (centres unmarked) [Example 12, 2-(tert-butoxy)-2-[3-(cyclopent-1-en-1-yl)-4-(3,4-dihydro-2H-1-benzopyran-6-yl)-1-methyl-1H-pyrazol-5-yl]acetic acid] | 0.24 |
| CC1CCCC=C1c1nn(C)c(C(OC(C)(C)C)C(=O)O)c1-c1ccc2c(c1)CCCO2 (centres unmarked) [Example 18, 2-(tert-butoxy)-2-[4-(3,4-dihydro-2H-1-benzopyran-6-yl)-1-methyl-3-(6-methylcyclohex-1-en-1-yl)-1H-pyrazol-5-yl]acetic acid] | 0.5 |
| Cn1nc(-c2ccsc2)c(-c2ccc3c(c2)CCCO3)c1C(OC(C)(C)C)C(=O)O (centres unmarked) [Example 4, 2-(tert-butoxy)-2-[4-(3,4-dihydro-2H-1-benzopyran-6-yl)-1-methyl-3-(thiophen-3-yl)-1H-pyrazol-5-yl]acetic acid] | 0.28 |
| CCCc1nn(C)c(C(OC(C)(C)C)C(=O)O)c1-c1ccc2c(c1)CCCO2 (centres unmarked) [Example 30, 2-(tert-butoxy)-2-[4-(3,4-dihydro-2H-1-benzopyran-6-yl)-1-methyl-3-propyl-1H-pyrazol-5-yl]acetic acid] | 32 |
